Reference: ChEMBL document CHEMBL5036364, “Cadinane-Type Sesquiterpenoids with Cytotoxic Activity from the Infected Stems of the Semi-mangrove Hibiscus tiliaceus” (J Nat Prod, 2022)

Key:
Huh-7 = assay: Cytotoxicity against human Huh-7 cells assessed as inhibition of cell growth in presence of 10% fetal bovine serum measured after 48 hrs incubation by MTT assay; type: functional, cell-based; conditions: Huh-7, 48 h
HepG2 = assay: Cytotoxicity against human HepG2 cells assessed as inhibition of cell growth n presence of 10% fetal bovine serum measured after 48 hrs incubation by MTT assay; type: functional, cell-based; conditions: HepG2, 48 h

Cc1cc2c(C(C)C)cc(O)c(C=O)c2oc1=O gave an IC50 (Huh-7) of 4 µM and an IC50 (HepG2) of 3.7 µM.
Compound CO[C@@]1(C)C[C@@H]2c3c(coc3C1=O)C(=O)C[C@H]2C(C)C has an IC50 (Huh-7) of 6.6 µM and an IC50 (HepG2) of 4.8 µM.
With COc1c(C)cc2c(C(C)C)cc(O)c(C=O)c2c1O the IC50 (Huh-7) was greater than 10 µM and the IC50 (HepG2) was greater than 10 µM.
In the case of CC(C)[C@@H]1C=Cc2coc3c2[C@H]1C[C@@H](C)C3=O, the IC50 (Huh-7) is reported as 6.4 µM and the IC50 (HepG2) is reported as 6.8 µM.
With COc1c(O)c(C)cc2c(C(C)C)cc(O)c(C=O)c12 the IC50 (Huh-7) was greater than 10 µM and the IC50 (HepG2) was greater than 10 µM.
